Source: article PMC3865801 (Journal of Medicinal Chemistry, 2013)
“Also recorded” adds a separate entry of the source. Read-outs that look alike come from different tables or passages of the source.

Assays:
[1] = Aqueous solubility of parent compound and sodium salt
[2] = Plasma pharmacokinetics in male CD-1 mice; type: in vivo, mouse; conditions: 5 mg/kg iv; for AUC0–∞ / Cmax / T1/2: plasma
Protocol: Blood was collected by cardiac puncture at 5 and 30 min and 1, 2, 4, and 6 h postdose in ice-cold K2-EDTA tubes. Plasma samples were separated by centrifuging at 4000g for 8 min and stored at −80 °C until analysis. Frozen plasma was thawed on wet ice on the day of analysis. […] A Zorbax SB-C18, 50 mm × 2.1 mm 5 μm column was used at a 0.5 mL/min flow rate, and elution was with a gradient of organic phase (A), acetonitrile in water (80:20 v/v) containing 0.01% formic acid and aqueous phase (B), water containing 0.01% formic acid. LC–MS/MS analysis was carried out using multiple reaction monitoring. […] Plasma samples from 5 min, 30 min, and 1 h were diluted with control mouse plasma (1:20 for 5 min, 1:10 for 30 min and 1 h samples) to fit within this range. The resultant concentration vs time data were fitted (using Phoenix WinNonlin 6.2; Pharsight Corporation, St. Louis, MO) to calculate pharmacokinetic parameters including half-life (T1/2), maximum concentration (Cmax), area under the curve (AUC0–∞), volume of distribution (V), and clearance (Cl).

[3] = target: T1, recombinant purified mouse perforin (Mus musculus, UniProt P10820); test: Inhibitor binding to immobilized perforin by SPR (Biacore T200); conditions: for Kd: single site specific binding model, read-out: calculated KD; for binding to immobilized perforin by SPR: analyte ≤2.5 μM, 5% DMSO running buffer
T1 sequence (P10820 21-554): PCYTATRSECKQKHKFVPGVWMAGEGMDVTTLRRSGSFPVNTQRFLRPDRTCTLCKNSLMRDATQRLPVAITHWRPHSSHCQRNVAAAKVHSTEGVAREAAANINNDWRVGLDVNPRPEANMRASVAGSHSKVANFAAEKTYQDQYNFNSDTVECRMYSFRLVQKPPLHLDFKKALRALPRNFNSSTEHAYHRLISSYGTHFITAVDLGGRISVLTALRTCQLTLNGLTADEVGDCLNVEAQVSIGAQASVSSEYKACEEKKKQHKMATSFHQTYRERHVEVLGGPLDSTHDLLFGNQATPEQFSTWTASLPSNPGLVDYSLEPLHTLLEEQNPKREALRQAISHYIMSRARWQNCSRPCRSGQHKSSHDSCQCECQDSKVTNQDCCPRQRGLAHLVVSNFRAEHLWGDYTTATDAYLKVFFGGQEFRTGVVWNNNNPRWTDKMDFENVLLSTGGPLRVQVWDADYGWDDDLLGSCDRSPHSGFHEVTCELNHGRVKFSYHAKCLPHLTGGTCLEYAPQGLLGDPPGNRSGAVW
From the text: While several series of potent inhibitors have now been identified,[23]−[26] little is known about the mechanism by which the cytolytic activity of perforin action is blocked. In order to find out more about the nature and degree of inhibitor binding, recombinant purified mouse perforin was immobilized on a surface plasmon resonance (SPR) S-series CM5 sensor chip using standard amide coupling methodology.
Binding experiments with surface immobilized wild-type perforin monomers on a S-series CM5 sensor chip (GE Healthcare Life Sciences) were carried out using a Biacore T200 SPR machine (GE Healthcare Life Sciences). Perforin monomer solution (25 μg/mL in 10 mM sodium acetate, pH 5.5) was injected over the sensor chip surface under standard amide coupling conditions to obtain covalent binding of the protein (density = 4257 RU). The initial and running buffers were made from a 10× stock solution of HEPES buffered saline (HBS). 10× HBS (50 mL) was diluted to 500 mL with water and filtered through a 0.22 μm filter (initial buffer). This initial buffer (380 mL) was added to DMSO (20 mL) to prepare the 5% DMSO running buffer. Stock solutions (2.5 mM) of compound were prepared in 100% DMSO. These solutions were diluted in HEPES initial buffer to 5% DMSO (125 μM) and then subsequently diluted to the required concentrations using HEPES running buffer containing 5% DMSO to maintain a constant DMSO concentration. A solvent correction was run before and after the injections to account for differences in DMSO concentrations between buffer and analyte solutions.

[4] = target: T2, purified recombinant perforin (Mus musculus, UniProt P10820); test: cell-based; type: cell-based; conditions: lysis of Jurkat cells by purified recombinant perforin, 51Cr release, 0.1% BSA; average of at least three determinations; read-out: inhibition of Jurkat cell lysis, IC50
T2 sequence (P10820 21-554): T1 sequence (P10820 21-554)
Protocol: The ability of the compounds to inhibit the lysis of nucleated (Jurkat T lymphoma) cells in the presence of 0.1% BSA was measured by release of ^51Cr label. Jurkat target cells were labeled by incubation in medium with 100 μCi ^51Cr for 1 h. The cells were then washed three times to remove unincorporated isotope and resuspended at 1 × 10^5 cells per milliliter in RPMI buffer supplemented with 0.1% BSA. […] Each data point was performed in triplicate, and an IC50 was calculated from the range of concentrations described above.

[5] = target: T3, perforin produced by an intact NK cell line (KHYG-1) (Homo sapiens, UniProt P14222); test: KHYG-1 cytotoxicity assay: perforin-induced lysis of K562 target cells co-incubated with KHYG-1 NK cells; type: cell-based; conditions: for inhibition at 5 µM: KHYG-1
T3 construct: the perforin is delivered by a functional NK cell; endogenous in cells; host or cells: KHYG-1 NK cells (K562 target cells)
T3 sequence (P14222 22-555): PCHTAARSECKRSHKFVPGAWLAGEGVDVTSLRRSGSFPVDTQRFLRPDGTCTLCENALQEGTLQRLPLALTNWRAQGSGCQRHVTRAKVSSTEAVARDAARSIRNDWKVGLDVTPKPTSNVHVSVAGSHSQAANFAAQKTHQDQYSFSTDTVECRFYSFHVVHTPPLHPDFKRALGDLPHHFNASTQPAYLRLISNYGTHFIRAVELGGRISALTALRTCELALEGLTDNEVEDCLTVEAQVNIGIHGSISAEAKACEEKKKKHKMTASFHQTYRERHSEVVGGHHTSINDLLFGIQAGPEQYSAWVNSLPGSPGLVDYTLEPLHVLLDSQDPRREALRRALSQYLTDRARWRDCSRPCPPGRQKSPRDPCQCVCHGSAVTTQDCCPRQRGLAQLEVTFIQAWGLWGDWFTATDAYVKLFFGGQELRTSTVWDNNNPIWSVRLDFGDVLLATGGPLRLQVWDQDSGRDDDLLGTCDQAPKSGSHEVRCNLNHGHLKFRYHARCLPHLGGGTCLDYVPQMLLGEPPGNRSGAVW
Protocol: KHYG-1 cells were washed and resuspended in RPMI + 0.1% BSA at 4 × 10^5 cells/mL, and an amount of 50 μL of KHYG-1 cells was dispensed to each well of a 96-well V-bottom plate. RPMI (50 μL) + 0.1% BSA or 10% (final concentration) of serum was added to each well. Then test compounds were added to KHYG-1 cells at various concentrations up to 20 μM and incubated at room temperature for 20 min. 1 × 10^6 K562 target cells were labeled with 75 μCi ^51Cr in 200 μL of RPMI for 90 min at 37 °C. Cells were washed as described above and resuspended in 5 mL of RPMI + 0.1% BSA. […] The percentage of specific cytotoxicity was calculated using the following formula: [drawing 4] and expressed as the mean of triplicate assays ± standard error of the mean.

[6] = SI Figure 2: 0, 0.25, 1.25 and 2.5 µM
[7] = SI Figure 3: further dilution series 0–2.5 µM

Compound: CC1c2cc(-c3ccc(/C=C4/NC(=S)NC4=O)s3)ccc2C(=O)N1C (centres unmarked) [compound 135, (E,Z)-2,3-Dimethyl-5-(5-((5-oxo-2-thioxoimidazolidin-4-ylidene)methyl)thiophen-2-yl)isoindolin-1-one]
- solubility ([1]; aqueous medium (not further specified)): 1.32 µg/mL
- Cl (clearance) [2]: 4346 mL h^–1 kg^–1
- V (volume of distribution) [2]: 1.478 L/kg
- AUC0–∞ [2]: 1151 ng·h/mL
- Cmax [2]: 4488 ng/mL
- T1/2 [2]: 1.15 h
- calculated Rmax [3, 6]: 1.23 ± 0.10 RU
- Kd [3, 6]: 1790 ± 550 nM
- calculated Rmax [3, 7]: 8.66 ± 2.81 RU
- Kd [3, 7]: 2390 ± 1230 nM
- binding to immobilized perforin by SPR [3]: saturable binding; also recorded: bind reversibly
- IC50 [4]: 3210 nM
- inhibition at 20 µM ([5]; 20 μM, 10% mouse serum, K562 targets, ± SEM, read-out: KHYG-1 inhibition (% at 20 μM), 10% serum): 67 ± 6.1%
- inhibition at 20 µM ([5]; 20 μM, no serum, K562 targets, vs untreated control, ± SEM, read-out: KHYG-1 inhibition (% at 20 μM), no serum): 90 ± 4%

Compound: O=C1NC(=S)N/C1=C/c1ccc(-c2ccc3c(c2)CCNC3=O)s1 [compound 167]
- solubility [1]: 0.53 µg/mL
- Cl (clearance) [2]: 5237 mL h^–1 kg^–1
- V (volume of distribution) [2]: 2.75 L/kg
- AUC0–∞ [2]: 955 ng·h/mL
- Cmax [2]: 4513 ng/mL
- T1/2 [2]: 1.30 h
- binding to immobilized perforin by SPR [3]: linear concentration response; also recorded: bind reversibly
- IC50 [4]: 1140 nM
- inhibition at 5 µM ([5]; 10% mouse serum, read-out: KHYG-1 inhibition, 10% serum): 34 ± 6.4%
- inhibition at 5 µM ([5]; no serum, read-out: KHYG-1 inhibition, no serum): 51 ± 4.2%
- inhibition at 20 µM ([5]; read-out: KHYG-1 inhibition (% at 20 μM), 10% serum): 81 ± 5.3%
- inhibition at 20 µM ([5]; read-out: KHYG-1 inhibition (% at 20 μM), no serum): 83 ± 4.6%
